The results in this text go back to US20250066323A1, “INHIBITORS OF HUMAN RESPIRATORY SYNCYTIAL VIRUS AND METAPNEUMOVIRUS” (priority 2023, published 2025).

Structures are written as SMILES. Like-named read-outs stand apart in the source and are kept apart here.

The subject of one experiment is hMPV-GFP. The experiment can be described thus: hMPV-GFP viral replication assay. Conditions: read-out: hMPV EC50. It is filed as cell-based, human metapneumovirus. As for the experimental part: GFP expressing rgHMPV #3 p3 was generated in Dr. Buchholz's lab (Biacchesi S. et al., J Virol. 2007 June; 81(11): 6057-6067.) and propagated in VERO cells (kidney tissue derived from a normal, adult African green monkey. ATCC Cat #CCL-81) with infection Multiplicity of Infection (MOI) of 0.1. Virus was harvested 4 days after infection by collecting all culture material and freeze-thaw the viral culture in liquid nitrogen twice. To generating virus working stocks, thaw frozen samples in 37° C. water bath then centrifuge at 218 g for 15 min at 4° C. Add 1/10 of 10×SPG (Biological Industries 06-3061-01-5A), mix, aliquot supernatant, and quick-freeze in liquid nitrogen then transfer to −80° C. freezer for storage. Virus titer was determined by performing titration test in 96-well plates and calculate approximate virus titer using GFP event/well data.
Compound plates were prepared by dispensing compounds dissolved in DMSO into wells of 384 well coming 3985 polystyrene flat clear bottom optical imaging microplates (202.5 nL/well) using an ECHO acoustic dispenser. Each compound was tested in a 10-point serial 3-fold dilution (typical final concentrations: 40,300 nM-2 nM). […] Continuous culture of VERO cells were maintained in complete culture media (OptiMEM supplemented with 2 mM GlutaMAX™ and 100 U/ml Penicillin-Streptomycin). To set up the assay, trypsinize VERO cells with 0.25% Trypsin-EDTA until cells dislodge, then re-suspend cells with 1 mL FBS. Spin down cells at 300 g for 5 min and wash cells twice in culture media, then count cells using default parameters on ViCell. Cells were then diluted to 100,000 cells/ml (5,000 cells/50 μl) in complete culture media+TrypLE Select (80 μl/ml). Add hMPV-GFP virus to cells at 125,000 pfu/ml (MOI=1.25). Mix by gentle inversion. 10 μl/well of 100% DMSO was dispensed to CellTiter-Glo (CTG) assay Max_E controls wells. Dispense cells at 50 μl/well using Bravo and 50 μl filtered tips into compound plates. Cover plates with MicroClime lids loaded with 7.5 ml of assay media to minimize evaporation. Lightly shake plate for 10 minutes at room temperature then incubate at 37 degrees C. and 5% CO2 for 48 hrs. Following incubation, distinct, GFP-expressing cells are counted using an Acumen imaging system with appropriate settings. A same-well CTG assay is performed by adding 10 μl/well reconstituted CellTiter-Glo reagent (Promega G7573) and reading plates on PerkinElmer Envision according to manufacturer's instructions. Raw data were loaded and analyzed in ActivityBase. Antiviral IC50 and cytotoxicity CC50 values were determined using a 4 parameter logistic fit based on the Levenberg-Marquardt algorithm. Model: 205-4 Parameter Logistic.

A further experiment relates to RSV-A2-GFP. The experiment can be described thus: RSV-A2-GFP viral replication assay. It counts as cell-based, Human Respiratory Syncytial Virus. The following applies: read-out: RSV EC50; Calu-1 cells, RSV-A2-GFP MOI=1.2, 96 hrs, GFP-expressing cells counted. The essentials:
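Calu-1 cells in DMEM/2% FBS infected with RSV-A2 expressing GFP between P and M genes (24,000 pfu/ml, MOI=1.2), 10-point 3-fold dilutions (typical final 403 nM-0.02 nM or 40.3 nM-0.002 nM). After 96 h at 37°C, GFP-positive cells imaged; same-well CellTiter-Glo for cytotoxicity. IC50/CC50 by 4-parameter logistic fit.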

The mark [1] stands for this setting: VERO cells, hMPV-GFP MOI=1.25, 48 hrs, GFP-expressing cells counted.

In general, EC50 refers to the concentration at which the effect is half-maximal.

As for `Cn1nc(-c2cscn2)cc1C(=O)NCC(C)(O)c1cc(C2(C)CCNC2)cc(-c2ccc(F)cc2)n1` (single isomer, unassigned) [Example 27-B], the EC50 in the experiment on hMPV-GFP (setting [1]) and in the experiment on RSV-A2-GFP was greater than 0.1 µM each time.

Consider `Cn1nc(-c2cscn2)cc1C(=O)NCC(C)(O)c1cc(C2(C)CCNC2)cc(-c2ccc(F)cc2)n1` (single isomer, unassigned) [Example 27-C], for which the results for the EC50 in the experiment on hMPV-GFP (setting [1]) and in the experiment on RSV-A2-GFP were greater than 0.1 µM and less than 0.01 µM, respectively.

With `Cn1nc(-c2cscn2)cc1C(=O)NCC(C)(O)c1cc(C2(C)CCNC2)cc(-c2ccc(F)cc2)n1` (single isomer, unassigned) [Example 27-D], the EC50 in the experiment with hMPV-GFP (setting [1]) was greater than 0.1 µM; in the experiment on RSV-A2-GFP, less than 0.01 µM.

Turning to `Cn1nc(-c2cscn2)cc1C(=O)NCC(C)(O)c1cc2c(c(-c3ccc(F)cc3)n1)OCC2(C)N` (single isomer, unassigned) [Example 28-A], the EC50 with hMPV-GFP (human metapneumovirus, Vero, 48 h) was greater than 0.1 µM; in the experiment with RSV-A2-GFP, less than 0.01 µM.

As for `Cn1nc(-c2cscn2)cc1C(=O)NCC(C)(O)c1cc2c(c(-c3ccc(F)cc3)n1)OCC2(C)N` (single isomer, unassigned) [Example 28-B], the EC50 in the experiment on hMPV-GFP (setting [1]) is greater than 0.1 µM; in the experiment on RSV-A2-GFP it was 0.01 to 0.1 µM.

In the case of `Cn1nc(-c2cscn2)cc1C(=O)NCC(C)(O)c1cc2c(c(-c3ccc(F)cc3)n1)OCC2(C)N` (single isomer, unassigned) [Example 28-C], the EC50 in the experiment on hMPV-GFP (setting [1]) and in the experiment with RSV-A2-GFP was greater than 0.1 µM each time.

Turning to `Cn1nc(-c2cscn2)cc1C(=O)NCC(C)(O)c1cc2c(c(-c3ccc(F)cc3)n1)OCC2(C)N` (single isomer, unassigned) [Example 28-D], the EC50 with hMPV-GFP (setting [1]) is greater than 0.1 µM; in the experiment on RSV-A2-GFP, 0.01 to 0.1 µM.
